Laboratory results reported in patent US10933053B2, “Treating infections with ceftolozane/tazobactam in subjects having impaired renal function” (MERCK SHARP & DOHME CORP., priority 2013, dated 2021).
Marks after values point to notes of the source that are not given here.

How the values were obtained:
clinical [1] = settings: human, in vivo
From the text: The most common adverse reactions (≥5% in either indication) occurring in patients receiving CXA-201 were nausea, headache and diarrhea. Table 3 lists adverse reactions occurring in ≥1.0% of patients receiving CXA-201 in Phase 3 clinical trials.
The majority of adverse events were mild to moderate in severity, and the incidence of treatment-limiting adverse events was <2% in both treatment groups. Epidemiology and susceptibility of organisms isolated from patients with cUTI.

[2] = system: baseline uropathogens (complicated urinary tract infections); assay: Phase 3 study of complicated urinary tract infections incl. pyelonephritis: composite cure / microbiological eradication at test-of-cure; assay type: in vivo, human; settings: mMITT; patients with concurrent bacteremia
From the text: The primary efficacy endpoint was the composite microbiological and clinical cure response at the test-of-cure (TOC) visit in the microbiologically modified intent-to-treat (mMITT) population, which included all patients who received study medication and had at least 1 baseline uropathogen. The key secondary efficacy endpoint was the composite microbiological and clinical cure response at the TOC visit in the microbiologically evaluable (ME) population, which included protocol-adherent mMITT patients with a urine culture at the TOC visit.

[3] = system: Gram-negative aerobic organisms isolated from patients with cUTI; assay: Susceptibility testing of baseline cUTI isolates, CLSI broth microdilution (tazobactam fixed 4 μg/mL); assay type: cell-based; settings: mMITT; ceftolozane/tazobactam breakpoint ≤8 mg/1, levofloxacin CLSI criteria
Description: 764 isolates of Gram-negative aerobic organisms were isolated from 800 patients in the microbiological modified intent-to-treat population (enrolled in 20 countries in Eastern Europe, North America, South America and 5 countries outside of these regions). Susceptibility (S) testing was performed with ceftolozane/tazobactam at a fixed 4 μg/mL of tazobactam and 10 antibiotic comparators using CLSI broth microdilution methods. ESBL enzymes were identified by PCR.

clinical [4] = settings: human, in vivo, 750 mg
Description: (§1) This was a Phase 1, multicenter, prospective, open-label study of 750 mg ceftolozane/tazobactam (as CXA-201) administered IV in male and female adult subjects with severe renal impairment (estimated CLCR<30 mL/min) and subjects with end-stage renal disease (ESRD) on hemodialysis (HD). The primary objective of the study was to determine the PK profile of ceftolozane/tazobactam in subjects with severe renal impairment and subjects with ESRD on HD and to determine the effect of HD on the clearance of ceftolozane/tazobactam.
(§2) Subjects with severe renal impairment received a single IV 1-hour infusion of 750 mg ceftolozane/tazobactam on Day 1. […] Subjects in this cohort received an IV dose of 750 mg ceftolozane/tazobactam as a 1 hour infusion immediately after their first HD session on Day 1 (post dialysis, approximately 72 hours prior to the next HD session) and a second dose of ceftolozane/tazobactam approximately 2 hours before their second HD session on Day 4 of the study. Infusion of ceftolozane/tazobactam was completed approximately 1 hour before the start of HD.
(§3) Subjects in both cohorts had urine (if not anuric) and plasma samples collected for determination of levels of ceftolozane, tazobactam and the M1 metabolite of tazobactam; subjects in the ESRD on HD cohort also had dialysate fluid samples collected for PK assessment. Plasma, urine, and dialysate levels of ceftolozane, tazobactam, and its metabolite M1 collected over a prespecified interval were determined by LC/MS/MS assay.

clinical [5] = settings: human, in vivo; remark: listed apart in the source
Description: as §1, §2, §3
All subjects underwent hemodialysis for 3 to 4 hours using a high-flux membrane (either 1.4, 1.8, or 1.9 m^2) on Days 1, 4, and 6 as scheduled. Average blood flow rate was 264 to 600 mL/min and average dialysis flow rate was either 600 or 800 mL/min for all subjects with ESRD.
All cohorts received ceftolozane/tazobactam as an intravenous infusion over 1 h. The normal, mild, and moderate renal impairment cohorts received a single dose of ceftolozane/tazobactam 1,000 mg/500 mg; the severe renal impairment cohort received a single dose of ceftolozane/tazobactam 500 mg/250 mg; the ESRD cohort received a dose of ceftolozane/tazobactam 500 mg/250 mg initiated at the end of HD on day 1 and another dose initiated 2 h before HD on day 4. Subjects with ESRD underwent HD for 3 to 4 h using a high-flux membrane as scheduled; average dialysis flow rate was 600 to 800 ml/min. Revaclear hemodialyzers (Gambro, Stockholm, Sweden) were used in 5 subjects (ultrafiltration coefficient 50 to 60 ml/h/mmHg, high flux membrane of 1.4 to 1.8 m^2) and a CT 190G hemodialyzers (Baxter Healthcare, McGaw Park, Ill.) was used in 1 subject (ultrafiltration coefficient 36 ml/h/mmHg, high flux membrane of 1.9 m^2). The average blood flow rate was 400 to 600 ml/min with the exception of one subject with rates between 264 and 400 ml/min.
Plasma concentrations of ceftolozane and tazobactam were measured prior to, during, and following administration of ceftolozane/tazobactam. Blood samples were collected 30 min prior to administration, at the end of administration and at 5, 15, and 30 min and 1, 2, 3, 5, 7, 9, 11, 15, 25, and 35 h after completion of ceftolozane/tazobactam administration in the normal, mild, and moderate renal impairment cohorts. Severe renal impairment and ESRD cohorts off HD had samples taken 30 min prior to administration and at 0.5, 1, 1.5, 2, 3, 6, 9, 12, 24, 36, and 48 h after the start of administration. On the day of and following HD, the subjects with ESRD had samples taken 30 min prior to administration and at 0.5, 1, 1.5, 2, 3, 4, 5, 6, 9, 12, 24, 36, and 44 h after the start of the administration. The entire dialysate was collected at each of the following intervals: 0 to 1, 1 to 2, 2 to 3, and 3 h to the end of dialysis. Urine for PK analysis was obtained in the normal, mild, and moderate cohorts at 0 to 2, 2 to 4, 4 to 8, 8 to 12, 12 to 24, and 24 to 36 h after the start of ceftolozane/tazobactam administration.

clinical [6] = settings: human, in vivo; remark: listed apart in the source
Description: This TQT study was a single-center, prospective, randomized, double-blind, double-dummy, placebo and active controlled, 4-way crossover study that evaluated a single therapeutic 1.5 g and a single supratherapeutic 4.5 g dose of ceftolozane/tazobactam compared with placebo. Moxifloxacin 400 mg, given orally, was used as a positive control. All subjects received study drug on 4 dosing days (Day 1, Day 5, Day 9, and Day 13) in a crossover fashion with a 3-day wash-out period between doses. Healthy men and women were randomized on a 1:1:1:1 basis to 1 of 4 dosing sequences.
Electrocardiograms were recorded (triplicate measurements) over 24 hours on Day 1, Day 5, Day 9, and Day 13 using a 12-lead Holter monitor. Blood samples for determination of ceftolozane, tazobactam, and the M1 metabolite of tazobactam levels were obtained at prespecified time intervals prior to and following each electrocardiogram (ECG) reading on dosing days. Plasma levels of ceftolozane, tazobactam, and its metabolite M1 were determined by LC/MS/MS assay.

clinical [7] = settings: human, in vivo; remark: listed apart in the source
Description: The extent of ceftolozane exposure increases with decreasing renal function. […] In subjects with moderate renal impairment, exposure approximately doubles relative to that in subjects with normal renal function.
For tazobactam, this estimated exposure from a dose of 125 mg in subjects with severe renal impairment not on hemodialysis is similar to that achieved with 500 mg tazobactam in subjects with normal renal function (23.8 μg·h/mL).

[8] = system: baseline intra-abdominal pathogens (complicated intra-abdominal infections); assay: Phase 3 study of complicated intra-abdominal infections: clinical cure at test-of-cure; assay type: in vivo, human; settings: ME population
Description: A total of 979 adults hospitalized with complicated intra-abdominal infections were randomized and received study medications in a multinational, double-blind study comparing CXA-201 (1.5 g IV every 8 hours) plus metronidazole (500 mg IV every 8 hours) to meropenem (1 g IV every 8 hours) for 4 to 14 days of therapy. Complicated intra-abdominal infections included appendicitis, cholecystitis, diverticulitis, gastric/duodenal perforation, perforation of the intestine, and other causes of intra-abdominal abscesses and peritonitis. The primary efficacy endpoint was clinical response at the test-of-cure (TOC) visit in the microbiological intent-to-treat (MITT) population, which included all patients who had at least 1 baseline intra-abdominal pathogen. The key secondary efficacy endpoint was clinical response at the TOC visit in the microbiologically evaluable (ME) population, which included all protocol-adherent MITT patients.

QT/QTc interval = assay type: in vivo, human; settings: 400 mg orally, positive control
From the text: The primary objectives of the study were to evaluate the effect of a single IV supratherapeutic dose of ceftolozane/tazobactam on ventricular repolarization as measured by QTc interval in healthy subjects compared to baseline-adjusted, time-matched placebo and to evaluate the change from the period-specific predose baseline of QT/QTc interval corrected by QTcI (individual QT correction subject-specific formula) across all dose groups.

With `C[C@H]1COc2c(N3CCN(C)CC3)c(F)cc3c(=O)c(C(=O)O)cn1c23` [Levofloxacin, levofloxacin] as the compound, how does the ALT increased (clinical [1]) read?
The ALT increased was 5 (0.9).

What about the AST increased (clinical [1]) of the same compound?
The AST increased was 5 (0.9).

What about the Abdominal pain (clinical [1]) of the same compound?
Its Abdominal pain is 2 (0.4).

What about the “Adverse events occurred, patients” value (clinical [1]) of the same compound?
The value was 34.4%.

And the Constipation (clinical [1])?
The Constipation was 17 (3.2).

What about the Diarrhea (clinical [1]) of the same compound?
The Diarrhea was 23 (4.3).

And the Headache (clinical [1])?
The Headache was 26 (4.9).

What about the Nausea (clinical [1]) of the same compound?
Its Nausea is 9 (1.7).

And the Vomiting (clinical [1])?
Its Vomiting is 6 (1.1).

And the gastrointestinal symptoms (clinical [1])?
Its gastrointestinal symptoms is 11.4%.

And the headache (clinical [1])?
Its headache is 4.9%.

And the “incidence of treatment-limiting adverse events” value (clinical [1])?
Its value is less than 2%.

What about the composite cure rate [2] of the same compound?
Its composite cure rate is 57.6%.

And the “gram-negative pathogens isolated at baseline that were susceptible” value [3]?
Its value is 70.7%.

Which results are given for `C[C@](Cn1ccnn1)([C@@H](N)C(=O)O)S(=O)O` [M1 Metabolite]?
AUClast, mean (CV %) (clinical [4]): 53.7 (25) μg · h/mL; AUC∞, mean (CV %) (clinical [4]): 60.3 (30) μg · h/mL; AUC0-∞ (clinical [5]): 31.0 (23.4-34.9) μg * hr/mL; AUC48h Ratio (Day 3:1), median (range) (clinical [5]): 0.49 (0.38-0.78); AUC(0-t) (clinical [5]): 26.8 (3.77-32.0) μg * hr/mL; AUCt0-t1, median (range) (clinical [5]): 27.5 (3.8-32.7) μg * hr/mL; Change in Concentration (clinical [5]): 9.1 (0.5-14.5); Clast (clinical [5]): 0.41 (0.26-1.11) μg/mL; Clast lower than Cmax (clinical [5]): ~26 fold; Cmax (clinical [5]): 10.9 (1.26-15.7) μg/mL; Concentration after HD (clinical [5]): 0.4 (0.3-1.1) μg/mL; Concentration before HD (clinical [5]): 9.4 (1.4-14.9) μg/mL; Half-Life, median (range) (clinical [5]): 368.4^a hr; Percent Removed (clinical [5]): 93.4 (38.1-97.7) %; Percent Removed, median (range) (clinical [5]): 51 (22-63); Tmax (clinical [5]): 1.50 (0.50-1.50) hr; half-life (clinical [5]): 1.80 (0.68-2.38) hr; median RDHD (percent reduction in plasma concentration during HD) (clinical [5]): 93%; median dialysis clearance (CLD) (clinical [5]): 4.59 L/h; removed by dialysis (clinical [5]): ~51%; t1/2 during the HD period (median) (clinical [5]): 1.80 h; Median tmax (clinical [6]): 3.7 h; t1/2, geometric mean (clinical [7]): 6.67 h

For `C[C@@H](O)[C@H]1C(=O)N2C(C(=O)O)=C(S[C@@H]3CN[C@H](C(=O)N(C)C)C3)[C@H](C)[C@H]12` [Meropenem, meropenem], which ALT increased (clinical [1]) is on record?
The ALT increased was 5 (1.0).

What about the AST increased (clinical [1]) of the same compound?
Its AST increased is 3 (0.6).

What about the Abdominal pain (clinical [1]) of the same compound?
The Abdominal pain was 2 (0.4).

And the Constipation (clinical [1])?
Its Constipation is 6 (1.2).

What about the Diarrhea (clinical [1]) of the same compound?
The Diarrhea was 25 (5.0).

What about the Headache (clinical [1]) of the same compound?
Its Headache is 9 (1.8).

What about the Nausea (clinical [1]) of the same compound?
Its Nausea is 29 (5.8).

What about the Vomiting (clinical [1]) of the same compound?
Its Vomiting is 20 (4.0).

What about the “Per pathogen clinical cure rate” value ([8]; Aerobic Gram-negative) of the same compound?
Its value is “(93.8) %”.

What about the “Per pathogen clinical cure rate” value ([8]; Aerobic Gram-positive) of the same compound?
Its value is “(91.9) %”.

And the “Per pathogen clinical cure rate” value ([8]; Anaerobic Gram-negative)?
The value was “(96.4) %”.

And the “Per pathogen clinical cure rate” value ([8]; Bacteroides thetaiotaomicron)?
Its value is “(93.0) %”.

And the “Per pathogen clinical cure rate” value ([8]; Klebsiella pneumoniae (CTX-M-15 ESBL-producing))?
Its value is “(0) %”.

With `COc1c(N2C[C@@H]3CCCN[C@@H]3C2)c(F)cc2c(=O)c(C(=O)O)cn(C3CC3)c12` [moxifloxacin] as the compound, how does the “95% lower confidence bound on difference from baseline for QTcI vs placebo” value (QT/QTc interval) read?
Its value is “above 5 ms”.
